Measured values: patent US5620997A, “Isothiazolones” (Warner-Lambert Company, priority 1995, dated 1997)

Target: T1, rabbit reticulocyte 15-LO (Oryctolagus cuniculus, UniProt P12530)
T1 construct: rabbit reticulocyte 15-LO; from tissue; host or cells: rabbit reticulocytes
T1 sequence (P12530 1-663): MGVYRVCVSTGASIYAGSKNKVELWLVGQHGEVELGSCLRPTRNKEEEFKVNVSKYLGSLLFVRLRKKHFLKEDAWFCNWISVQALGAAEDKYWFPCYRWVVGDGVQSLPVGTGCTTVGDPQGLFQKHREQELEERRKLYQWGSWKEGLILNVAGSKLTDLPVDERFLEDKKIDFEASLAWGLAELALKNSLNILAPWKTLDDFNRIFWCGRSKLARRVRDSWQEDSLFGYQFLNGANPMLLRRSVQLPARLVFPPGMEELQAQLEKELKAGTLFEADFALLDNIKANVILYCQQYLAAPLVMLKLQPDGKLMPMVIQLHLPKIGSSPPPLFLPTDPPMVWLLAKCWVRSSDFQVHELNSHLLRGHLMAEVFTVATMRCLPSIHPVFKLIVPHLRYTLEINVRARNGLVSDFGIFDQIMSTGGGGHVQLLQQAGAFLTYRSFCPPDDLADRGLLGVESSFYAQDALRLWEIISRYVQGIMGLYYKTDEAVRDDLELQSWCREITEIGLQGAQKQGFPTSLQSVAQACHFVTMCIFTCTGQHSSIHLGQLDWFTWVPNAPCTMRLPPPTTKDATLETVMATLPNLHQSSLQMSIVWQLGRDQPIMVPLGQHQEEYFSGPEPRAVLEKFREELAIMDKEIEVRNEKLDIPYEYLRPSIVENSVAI
Assay: Colorimetric Assay of 15-LO Inhibition
Format: biochemical
Conditions: colorimetric method
Procedure: The isothiazolones of Formula I are also effective for treating inflammation and atherosclerosis. A characteristic feature of atherosclerosis is the accumulation of cholesteryl ester engorged from foam cells. Foam cells are derived from circulating monocytes which invade artery walls in response to hypercholesterolemia, and mature into tissue macrophages. […] Specifically, representative compounds were evaluated by the methods described by Auerbach, et al., Analytical Biochemistry, 1992;201:375-380. Two in vitro assays were utilized, both utilizing rabbit reticulocyte 15-LO, and linoleic acid as substrate, to enzymatically produce a peroxide oxidation product known as 13(S)-HPODE. N-Benzoyl leucomethylene blue was utilized as a colorimetric reagent for detection and quantification of the peroxide formation. Also, HPLC was utilized to quantify the oxidation following incubation at 4° C. for 10 minutes.
Table 3 gives the concentration of compound required to inhibit 50% of the activity of 15-LO (IC50) when measured by the HPLC method of Auerbach, et al. Table 4 gives the percent inhibition of 15-LO activity when evaluated by the colorimetric method.

Compound `NS(=O)(=O)c1ccc(-n2sc3ccccc3c2=O)cc1` [Example 1, 4-(3-Oxo-3h-benzo[d]isothiazol-2-yl)-benzenesulfonamide] has an inhibition at 10 µM of 35%.
